# Test results taken from article PMC9029893 (International Journal of Molecular Sciences, 2022).
# Tests used:
# HUVEC cells = test: HUVEC integrity in RTCA-DP system (normalized cell index); assay type: cell-based, human
# Experimental: The effects of sulfonamides 1–8 on the integrity and barrier properties of HUVEC were examined in real-time using a cell electric impedance monitoring system (Real-Time Cell Analyzer; Roche & ACEA Biosciences, Santa Clara, CA, USA), which is based on tracking electrical impedance signals. Any changes in cell status, adhesion, and morphology are expressed by parameter Cell Index (CI). The experimental protocol has been described previously. Briefly, the cells were seeded at a density of 15,000 cells per well on E-16 plates (Roche & ACEA Biosciences, Santa Clara, CA, USA), and cultured until the cells achieved plateau phase. Then, the medium was discarded from each well, and the solutions of the test compounds dissolved in cell culturing medium (100 μL) or pure medium (100 μL, control) were added. The measurements were then carried out for 48 h. The results are presented as mean ± SD of ‘normalized cell index’ (nCI), which is calculated by the division of a CI value at a certain time point by the CI value at a reference time point. The experiments were conducted in multiplicate (n = 4–6). The method was validated and the coefficient of variability (CV) was calculated as 9.17%–15.2%, depending on the measured time point (n = 6).
# [1] = system: clot formation and fibrinolysis in human citrate plasma; test: Clot formation and fibrinolysis test (CL-test); assay type: biochemical
# Experimental: The effects of the […] on overall hemostasis potential by means of clot formation and fibrinolysis test (CL-test) were further tested based on the continuous measurement of the changes in optical transmittance over time, as described by Kostka et al. and Sikora et al.. These experiments were conducted using 470 µL of three-fold diluted human citrate plasma, 10 µL of the tested compounds, and 10 µL t-PA (final concentration in a sample 220 ng/mL). The clot formation was triggered by thrombin (10 µL, final concentration 0.5 IU/mL). The clot formation and lysis curves were determined at a wavelength of 405 nm with a spectrophotometer (Cecil CE 2021; London, UK) with circulating thermostated water (37 °C) and a Model 300 Electronic Stirrer (Rank Brothers Ltd., Cambridge, UK). The experiments were conducted in multiplicate (n = 5–7), and the results are presented as mean ± SD.
# The received graphs were analyzed using dedicated software to determine the kinetic parameters of clot formation, stabilization, and fibrinolysis. The following parameters of clot formation were determined: Tt—thrombin time (s), Fmax—maximum clotting (%T), Tf—plasma clotting time (s), Fvo—initial plasma clotting velocity (%T/min), Sr—area under the clot formation curve (%Txmin). The parameters of the clot stabilization phase comprised Tc—clot stabilization time (s), Sc—area under the curve of stable clot formation (%Txmin). The parameters of fibrinolysis comprised Lmax—maximum lysis (%T), Tl—fibrinolysis time (s), Lvo—initial clot fibrinolysis velocity (%T/min), Sf—area under the fibrinolysis curve (%Txmin). Additionally, the overall potential of clot formation and fibrinolysis (CLAUC, (%Txmin)) and total time of the process of clot formation and fibrinolysis (T, (s)) were also estimated.
# [2] = system: coagulation in human citrate plasma; test: Coagulation assay (endogenous thrombin generation); assay type: biochemical
# Experimental: These reagents induce a feedback reaction leading to the generation of endogenous thrombin, and coagulation. The other experimental conditions were the same as for the CL-test (Section 4.12).
# The obtained curves were analyzed using dedicated software that estimates the following parameters: TGt—thrombin generation time (s), Fmax—maximum clotting (%T), Tf—plasma clotting time (s), Fvo—initial plasma clotting velocity (%T/min), Sf—area under the clot formation curve (%Txmin), Tc—clot stabilization time (s), S—area under the curve of coagulation (%Txmin).
structure (smiles),measurement,setting,value
CCCCCCCCS(=O)(=O)NC(N)=NC(=N)N(C)C [Compound 2],normalized Cell Index (nCI),"HUVEC cells; 0.3 mM, 3 hours",0.608 ± 0.038
same,normalized Cell Index (nCI),"HUVEC cells; 0.3 mM, 6 hours",0.693 ± 0.022
same,normalized Cell Index (nCI),"HUVEC cells; 0.3 mM, 12 hours",0.676 ± 0.047
same,normalized Cell Index (nCI),"HUVEC cells; 0.3 mM, 24 hours",0.522 ± 0.030
same,normalized Cell Index (nCI),"HUVEC cells; 0.3 mM, 36 hours",0.761 ± 0.008
same,normalized Cell Index (nCI),"HUVEC cells; 1.0 mM, 3 hours",0.652 ± 0.006
same,normalized Cell Index (nCI),"HUVEC cells; 1.0 mM, 6 hours",0.706 ± 0.007
same,normalized Cell Index (nCI),"HUVEC cells; 1.0 mM, 12 hours",0.719 ± 0.005
same,normalized Cell Index (nCI),"HUVEC cells; 1.0 mM, 24 hours",0.731 ± 0.002
same,normalized Cell Index (nCI),"HUVEC cells; 1.0 mM, 36 hours",0.379 ± 0.032
same,Fmax—maximum clotting,[1]; 0.06 mM,66.77 ± 5.68 %T
same,Fvo—initial plasma clotting velocity,[1]; 0.06 mM,203.43 ± 22.00 %T/min
same,Lmax—maximum lysis,[1]; 0.06 mM,67.40 ± 5.38 %T
same,Lvo—initial clot fibrinolysis velocity,[1]; 0.06 mM,22.29 ± 4.30 %T/min
same,Sc—area under the curve of a stable clot formation,[1]; 0.06 mM,323.20 ± 94.05 %T x min
same,Sf—area under the clot formation curve,[1]; 0.06 mM,44.40 ± 9.07 %T x min
same,Sl (area under the fibrinolysis curve),[1]; 0.06 mM,148.45 ± 47.41 %T x min
same,S—overall potential of clot formation and fibrinolysis (CLAUC),[1]; 0.06 mM,516.05 ± 146.55 %T x min
same,Tc—clot stabilization time,[1]; 0.06 mM,296.57 ± 72.31 s
same,Tf—plasma clotting time,[1]; 0.06 mM,56.56 ± 8.57 s
same,Tl—fibrinolysis time,[1]; 0.06 mM,240.14 ± 65.11 s
same,Tt—thrombin time,[1]; 0.06 mM,16.86 ± 4.24 s
same,T—total time of the process of clot formation and fibrinolysis,[1]; 0.06 mM,610.13 ± 145.50 s
same,Fmax—maximum clotting,[1]; 0.3 mM,68.99 ± 5.55 %T
same,Fvo—initial plasma clotting velocity,[1]; 0.3 mM,194.00 ± 48.64 %T/min
same,Lmax—maximum lysis,[1]; 0.3 mM,69.49 ± 5.34 %T
same,Lvo—initial clot fibrinolysis velocity,[1]; 0.3 mM,19.83 ± 6.57 %T/min
same,Sc—area under the curve of a stable clot formation,[1]; 0.3 mM,344.01 ± 74.34 %T x min
same,Sf—area under the clot formation curve,[1]; 0.3 mM,46.00 ± 9.83 %T x min
same,Sl (area under the fibrinolysis curve),[1]; 0.3 mM,153.63 ± 43.80 %T x min
same,S—overall potential of clot formation and fibrinolysis (CLAUC),[1]; 0.3 mM,543.64 ± 122.37 %T x min
same,Tc—clot stabilization time,[1]; 0.3 mM,309.14 ± 68.74 s
same,Tf—plasma clotting time,[1]; 0.3 mM,59.24 ± 16.26 s
same,Tl—fibrinolysis time,[1]; 0.3 mM,252.00 ± 73.00 s
same,Tt—thrombin time,[1]; 0.3 mM,17.54 ± 5.79 s
same,T—total time of the process of clot formation and fibrinolysis,[1]; 0.3 mM,637.93 ± 155.22 s
same,Fmax—maximum clotting,[1]; 0.6 mM,67.40 ± 9.57 %T
same,Fvo—initial plasma clotting velocity,[1]; 0.6 mM,214.14 ± 50.85 %T/min
same,Lmax—maximum lysis,[1]; 0.6 mM,68.19 ± 9.82 %T
same,Lvo—initial clot fibrinolysis velocity,[1]; 0.6 mM,20.37 ± 7.03 %T/min
same,Sc—area under the curve of a stable clot formation,[1]; 0.6 mM,344.82 ± 65.62 %T x min
same,Sf—area under the clot formation curve,[1]; 0.6 mM,44.34 ± 10.50 %T x min
same,Sl (area under the fibrinolysis curve),[1]; 0.6 mM,143.77 ± 40.07 %T x min
same,S—overall potential of clot formation and fibrinolysis (CLAUC),[1]; 0.6 mM,532.93 ± 111.10 %T x min
same,Tc—clot stabilization time,[1]; 0.6 mM,319.00 ± 63.63 s
same,Tf—plasma clotting time,[1]; 0.6 mM,55.80 ± 11.60 s
same,Tl—fibrinolysis time,[1]; 0.6 mM,247.43 ± 74.21 s
same,Tt—thrombin time,[1]; 0.6 mM,17.57 ± 3.74 s
same,T—total time of the process of clot formation and fibrinolysis,[1]; 0.6 mM,639.80 ± 148.09 s
same,Fmax—maximum clotting,[1]; 1.5 mM,61.57 ± 7.24 %T
same,Fvo—initial plasma clotting velocity,[1]; 1.5 mM,177.43 ± 34.91 %T/min
same,Lmax—maximum lysis,[1]; 1.5 mM,62.14 ± 6.63 %T
same,Lvo—initial clot fibrinolysis velocity,[1]; 1.5 mM,20.07 ± 6.59 %T/min
same,Sc—area under the curve of a stable clot formation,[1]; 1.5 mM,346.35 ± 92.32 %T x min
same,Sf—area under the clot formation curve,[1]; 1.5 mM,44.31 ± 12.08 %T x min
same,Sl (area under the fibrinolysis curve),[1]; 1.5 mM,133.78 ± 47.19 %T x min
same,S—overall potential of clot formation and fibrinolysis (CLAUC),[1]; 1.5 mM,524.43 ± 146.77 %T x min
same,Tc—clot stabilization time,[1]; 1.5 mM,351.43 ± 96.53 s
same,Tf—plasma clotting time,[1]; 1.5 mM,61.21 ± 14.65 s
same,Tl—fibrinolysis time,[1]; 1.5 mM,249.14 ± 80.94 s
same,Tt—thrombin time,[1]; 1.5 mM,24.37 ± 7.41 s
same,T—total time of the process of clot formation and fibrinolysis,[1]; 1.5 mM,686.16 ± 190.86 s
same,Fmax—maximum clotting,[2]; 0.06 mM,85.20 ± 6.52 %T
same,Fvo—initial plasma clotting velocity,[2]; 0.06 mM,124.35 ± 37.66 %T/min
same,Sc—area under the curve of a stable clot formation,[2]; 0.06 mM,562.66 ± 156.02 %T x min
same,Sf—area under the clot formation curve,[2]; 0.06 mM,91.44 ± 30.65 %T x min
same,S—overall potential of clot formation,[2]; 0.06 mM,1638.19 ± 135.59 %T x min
same,TGt—thrombin generation time,[2]; 0.06 mM,151.33 ± 26.37 s
same,Tf—plasma clotting time,[2]; 0.06 mM,98.28 ± 33.46 s
same,Fmax—maximum clotting,[2]; 0.3 mM,85.12 ± 5.67 %T
same,Fvo—initial plasma clotting velocity,[2]; 0.3 mM,142.17 ± 46.90 %T/min
same,Sc—area under the curve of a stable clot formation,[2]; 0.3 mM,602.85 ± 84.63 %T x min
same,Sf—area under the clot formation curve,[2]; 0.3 mM,79.63 ± 20.32 %T x min
same,S—overall potential of clot formation,[2]; 0.3 mM,1641.98 ± 118.29 %T x min
same,TGt—thrombin generation time,[2]; 0.3 mM,135.67 ± 25.90 s
same,Tf—plasma clotting time,[2]; 0.3 mM,85.08 ± 25.10 s
same,Fmax—maximum clotting,[2]; 0.6 mM,83.60 ± 6.72 %T
same,Fvo—initial plasma clotting velocity,[2]; 0.6 mM,140.83 ± 37.45 %T/min
same,Sc—area under the curve of a stable clot formation,[2]; 0.6 mM,583.07 ± 90.13 %T x min
same,Sf—area under the clot formation curve,[2]; 0.6 mM,88.00 ± 18.58 %T x min
same,S—overall potential of clot formation,[2]; 0.6 mM,1611.84 ± 135.58 %T x min
same,TGt—thrombin generation time,[2]; 0.6 mM,153.33 ± 21.05 s
same,Tf—plasma clotting time,[2]; 0.6 mM,91.58 ± 19.43 s
same,Fmax—maximum clotting,[2]; 1.5 mM,76.35 ± 9.75 %T
same,Fvo—initial plasma clotting velocity,[2]; 1.5 mM,120.32 ± 48.40 %T/min
same,Sc—area under the curve of a stable clot formation,[2]; 1.5 mM,511.33 ± 178.11 %T x min
same,Sf—area under the clot formation curve,[2]; 1.5 mM,87.66 ± 44.66 %T x min
same,S—overall potential of clot formation,[2]; 1.5 mM,1467.86 ± 181.79 %T x min
same,TGt—thrombin generation time,[2]; 1.5 mM,170.50 ± 31.73 s
same,Tf—plasma clotting time,[2]; 1.5 mM,101.45 ± 38.76 s
